The subject of the assay is HWY/slc hairless rats, full-thickness defect infected with Staphylococcus aureus. The assay can be described thus: Healing effect in rat infected-wound model. The assay is classed as in vivo. On the procedure: Referring to Stenberg B D et al. (J Surg Res. 1991 January; 50(1):47-50.) and Hayward P et al. (Am J. Surg. 1992 March; 163(3):288-93.), a rat infected-wound model was produced as described below. […] hairless rats (male, 7-week old, obtained from Japan SLC, Inc.) were used. The day before full-thickness defects were created, the number of leukocytes was measured and cyclophosphamide was administered in tail vein (100 mg/kg). On the next day, the number of leukocytes was counted. Only the individuals in which the number of leukocytes was not more than 5000, were used. […] After administering the test substances, the wound sites were covered with a covering (PERME-ROLL, Nitto Medical Corporation) (day 0). […] Six days after the full-thickness defects were created (day 6), the area where the wounds had still not healed was measured to calculate the ratio of it relative to the area where the wounds were created, and the ratio was regarded as the wound area ratio on day 6.

Peptide text beside a SMILES is read from it.

In the case of `CC[C@H](C)[C@H](NC(=O)[C@H](CC(C)C)NC(=O)[C@H](CCCCN)NC(=O)[C@H](CC(C)C)NC(=O)[C@@H](N)CCSC)C(=O)N[C@@H](Cc1ccccc1)C(=O)N[C@@H](CC(C)C)C(=O)N[C@@H](Cc1c[nH]cn1)C(=O)N[C@@H](CCCNC(=N)N)C(=O)N[C@@H](CC(C)C)C(=O)N[C@@H](CCCCN)C(=O)N[C@@H](CCCNC(=N)N)C(=O)N[C@@H](CCSC)C(=O)N[C@@H](CCCNC(=N)N)C(=O)N[C@@H](CCCCN)C(=O)N[C@@H](CCCNC(=N)N)C(=O)N[C@@H](CC(C)C)C(=O)N[C@@H](CCCCN)C(=O)N[C@@H](CCCNC(=N)N)C(=O)N[C@@H](CCCCN)C(=O)O` [SR-1] (H-MLKLIFLHRLKRMRKRLKRK-OH; N-terminus assumed), under “SR-1 50 μg, bFGF formulation 3 μg/25 μL, once a day days 0-3”, the “Wound area ratio on day 6” value is reported as 80.2. In addition, where the note is “compared with the bFGF formulation”, the “healing effect on wounds associated with infection” value is “higher healing effect compared with the bFGF formulation”.

For the origin of these results see patent US9376470B2, “Polypeptide having angiogenesis-inducing activity and antibacterial activity, and use thereof for medical purposes” (FunPep Inc., priority 2008, dated 2016).
